For test [1], the system named is rats. As to the kind of experiment: CPK activity in blood serum 1 hour after coronary occlusion. The class given is in vivo. Particulars: dose printed --; i.v.; 1 hour after coronary occlusion. On the procedure:
White random-bred male rats weighing approximately 200 g were anesthetized using a light ether administration and then immobilized and artificially ventilated. […] Immediately after ligation, a test substance, positive, control substance, or negative control substance (described below) was administered to a rat through a catheterized femoral vein. Each dose of each test substance or positive or negative control substance was administered to an experimental or control group of 9 test rats. In this study, GE and VT served as test substances, propranolol served as the positive control substance, and physiological saline served as the negative control substance. Each test rat in an experimental group was given a dose of either 0.1, 1.0, or 10.0 milligram GE per kilogram of body weight of the subject animal (mg/kg) or 0.1, 1.0, or 10.0 milligram VT per kilogram of body weight of the animal. Each animal of the positive control group received an intravenous dose of 0.5 mg of β-adrenergic blocking agent, propranolol (Obzidan, Germed, Germany) per kilogram of body weight. Propranolol is commonly used to manage cardiac arrhythmia and there is some evidence that the agent may reduce the extent of ischemic damage to the heart. […] Each animal of the negative control group received physiological saline.
One hour after initiation of the coronary artery occlusion, each test animal was sacrificed, its blood was collected, and the CPK activity in its blood serum was measured. CPK activity was determined by using a standard biochemical method, such as that commercially available from the Lachema Company (Czechia) in its test kit, and by following the manufacturer's process instructions included in the package insert.
As a supplementary control for the possible trauma caused by the surgical procedure, a group of 9 sham-operated rats was included in the study. These test animals were subjected to chest dissection, but not to coronary artery occlusion. These "sham-operated" animals were not treated with any test or control substances and were euthanized 1 hour after surgery. Their blood was then collected for determination of CPK activity.

Test [2] deals with rats. The test can be described thus: Early ischemic myocardial arrhythmias after coronary artery ligation. It counts as in vivo. As to conditions: 0.5 mg/kg i.v.; 30 min after coronary occlusion. On the procedure: White random-bred male rats weighing 200 g were given light ether anesthesia and were then immobilized and artificially ventilated. The descending branch of the left coronary artery of each rat was ligated. Immediately following ligation, a test or control substance was administered to each rat through the catheterized femoral vein, and an ECG recording was initiated (standard lead II) and maintained for the next 30 minutes.
GE and VT served as test substances and were administered to animals in the respective test groups at doses of 0.1, 1.0, and 10.0 mg/kg. The β-adrenergic blocking agent, propranolol (Obzidan, Germed, Germany), served as the positive control substance and was administered intravenously to each animal in the positive control group at a dose of 0.5 mg/kg. Physiological saline served as the negative control substance and was administered intravenously to animals in the negative control group. Each dose of each test or control substance was tested separately on a group of nine animals.
The following parameters were evaluated based upon the ECG recordings: (i) the number of ventricular extrasystoles that occurred within a 30-minute observation period following coronary occlusion; (ii) the overall cumulative duration of ventricular tachycardias (i.e., the summation of duration of individual paroxysmal ventricular rhythm disturbances in seconds) occurring within the 30-minute observation period; and (iii) the overall duration (in seconds) of the ventricular fibrillations occurring within the 30-minute observation period. The data were processed electronically and statistical comparisons were made between the values obtained from the animals in the experimental test groups and those in the different respective control groups.

SMILES strings stand for the structures.

Regarding `CC(C)NCC(O)COc1cccc2ccccc12` (stereo not drawn) [Propranolol, propranolol, reference compound], in test [1], the “CPK Activity in blood serum” value is given as 0.170 (±0.011) mcCat/L. In addition, in test [2], the “Number of Ventricular Extrasystoles” value turned out to be 61.22 and the “Overall Duration of Ventricular Tachycardia” value was determined as 56.74 s.

(Values after patent publication US5972894A, “Peptides having potassium channel opener activity” (Cytran, Inc., priority 1997, dated 1999).)
